Experimental data published in patent publication US12583872B2, “Photosensitizer compounds, methods of manufacture and application to plants” (NUTRIEN AG SOLUTIONS (CANADA) INC., priority 2019, dated 2026).

Legend:
[1] = test system: dollar spot fungus (Sclerotinia homoeocarpa); test: Dollar spot fungus broth protocol (PBS treatment, then radial growth on PDA); format: cell-based; conditions: Broth data; for inhibition at 100 µM: Clarireedia homoeocarpa
Experimental: Broth protocol: control of dollar spot fungus (Sclerotinia homoeocarpa) with modified chlorins was assessed. Treatments were prepared in Phosphate Buffered Saline (PBS) in 24 well plates (in duplicates for light vs. dark incubation) at desired concentrations. Then, a 5 mm diameter plug of a Sclerotinia homoeocarpa isolate (3 isolates total tested) was inoculated into the PBS and incubated at 21° C. in the dark for 2 hours. After 2 hours, one of the 24 well plates (with isolates in triplicate) was left in the dark and one 24 well plate was placed under illumination for 1 hour (all at 21° C.). Following illumination, fungal plugs were removed from PBS, blotted dry on sterile filter paper and transferred to non-amended Potato Dextrose Agar (PDA). Radial growth of the fungus was monitored daily until the growth of S. homoeocarpa reached the edge of the Petri-dish. Illumination was provided by LED lights emitting about 1000 μmol/m2/s photosynthetically active radiation (PAR).

[2] = test system: dollar spot fungus (Sclerotinia homoeocarpa); test: Dollar spot fungus agar plate assay (amended PDA, radial growth); format: cell-based; conditions: for inhibition at 10 µM: Clarireedia homoeocarpa
Experimental: Control of dollar spot fungus (Sclerotinia homoeocarpa) with Ce6-mix-DMAE^15,17 amide and Ce6Na3 (comparative) was assessed. Treatments were amended into Potato Dextrose Agar (PDA) at desired concentrations. Then, a 5 mm diameter plug of a Sclerotinia homoeocarpa isolate (3 isolates total tested) was inoculated into the center of the amended Petri-dish and incubated at 21° C. in the dark for 24 h. After 24 h, one set of Petri-dishes (in triplicate) was left in the dark (no light) and one set was placed under illumination (light) for the remainder of the experiment (all at 21° C.). Radial growth of the fungus was monitored daily until the growth of S. homoeocarpa on non-amended PDA reached the edge of the Petri-dish. Illumination was provided by fluorescent lights emitting about 180 μmol/m^2/s photosynthetically active radiation (PAR).
Agar protocol: control of dollar spot fungus (Sclerotinia homoeocarpa) with modified Ce6 was assessed. Treatments were amended into Potato Dextrose Agar (PDA) at desired concentrations. Then, a 5 mm diameter plug of a Sclerotinia homoeocarpa isolate (3 isolates total tested) was inoculated into the center of the amended Petri-dish and incubated at 21° C. in the dark for 24 hours. After 24 hours, one set of Petri-dishes (in triplicate) was left in the dark and one set was placed under illumination for the remainder of the experiment (all at 21° C.). Radial growth of the fungus was monitored daily until the growth of S. homoeocarpa on non-amended PDA reaches the edge of the Petri-dish. Illumination was provided by fluorescent lights emitting about 180 μmol/m2/s photosynthetically active radiation (PAR).

[3] = test system: Pseudomonas syringae pv. tabaci; test: Relative inactivation of Pseudomonas syringae pv. tabaci in PBS (CFU count); format: cell-based; conditions: for Relative Inactivation (log[CFUcontrol mL^−1] − log[CFUtreatment mL^−1]): concentration not given; for Killing of bacteria: light treatment
Experimental: Experiments were conducted to evaluate control of the gram-negative bacterial plant pathogen Pseudomonas syringae pv. tabaci with modified Ce6. Treatments were prepared in Phosphate Buffered Saline (PBS) in 96 well plates at desired concentrations. A bacterial suspension was inoculated into the PBS and incubated at 28° C. in the dark for 30 min. After 30 min, the 96 well plate was placed under illumination for 1 hour (at 21° C.). A separate plate prepared at the same time was kept in the dark without illumination and served as dark control. Following illumination, bacterial suspensions were serially diluted and 10 μL of each dilution was spread uniformly on Tryptic Soy Agar (TSA) plates and placed in the dark in an incubator at 28° C. for 48 hours. After 48 hours, bacterial colonies were counted and results were log transformed (log colony forming units (CFU)/mL). The relative inactivation was determined by taking the difference between log CFU (PBS control) and log CFU (treatments). Sample Illumination was provided by LED lights (Heliospectra RX30) emitting about 1000 μmol/m^2/s photosynthetically active radiation (PAR). The modified Ce6 that were evaluated are the Ce6-mix-DMAE^15,17 amide, Ce6-bis-DMAE^15,17 amide and Ce6-mono-DMAE^15 amide.

[4] = test system: Kentucky bluegrass (Poa pratensis); test: Kentucky bluegrass tolerance to salt stress (turf quality); format: in vivo; conditions: 0.1%; 170 mM NaCl, 2 salt applications; scale 1-9 (1=dead, 9=healthy)
Experimental: Kentucky bluegrass (Poa pratensis) was grown under greenhouse conditions for ˜3 weeks. After 3 weeks, plants were sprayed with formulations and allowed to sit for 24 hours, after which the pots were placed in a 170 mM NaCl solution until the soil was saturated. The salt application was repeated again 7 days later for a total of 2 salt applications. Salinity stress was evaluated based on a turf quality scale of 1-9; where 1=dead, brown turf; 6=minimally acceptable turf quality (based on standards for golf courses or sports fields); and 9=dense, dark green turf (healthy). Data are average of 5 replicates.

[5] = test system: Pseudomonas syringae pv tabacci; test: Control of bacterial pathogen Pst on Arabidopsis thaliana; format: in vivo; conditions: 0.05% + surfactants (0.5% propylene glycol + 0.1% Pluronics F-127); host Arabidopsis thaliana; yellow leaves/plant
Experimental: Arabidopsis thaliana plants were grown under 12 hours:12 hours, light:dark photoperiod, under LED lights (PAR 24 μmol m^−2 s^−1), at a temperature of 25° C.±3° C. and 65% relative humidity. After 3 weeks, plants were sprayed with formulations (50% dilution in water), allowed to dry for 2 h, after which Pseudomonas syringae pv tabacci (at OD0.08 diluted in 10 mM MgCl2) was sprayed. Plants were kept under plastic domes until symptoms develop. Disease severity was rated by counting the number of yellow leaves/plant. Data are average of 3 replicas.

[6] = test system: Colletotrichum orbiculare ATC20767 (Cgm); test: Control of fungal pathogen Cgm on Nicotiana benthamiana; format: in vivo; conditions: 0.05% + Surfactants (0.5% propylene glycol + 0.1% Pluronics F-127) (Table 14); host Nicotiana benthamiana
Experimental: Control of the fungal plant pathogen Colletotrichum orbiculare ATC20767 (Cgm) on the host plant Nicotiana benthamiana following treatment with modified Chlorin e6 compounds was assessed. Treatments were applied to N. benthamiana plants approximately 2 h prior to inoculation with a spore suspension of Cgm. Plants were then exposed to light for a 24-hour period followed by dark incubation until disease symptoms were evident on the water treated control plants. Once disease symptoms were evident, lesions were counted and leaf area measured in order to determine the number of lesions/cm^2 leaf area. Four replicate plants were used per treatment and plants were randomized under the light source. Illumination was provided by LED lights emitting about 180 μmol/m^2/s photosynthetically active radiation (PAR).

[7] = Agar data, 10 uM, Dark (Table 5)
[8] = Agar data, 10 uM, Light (Table 5)
[9] = Light: 1 hour about 1000 μmol/m^2/s PAR after 30 min dark incubation, where no CFU were left, treatment set to 1 CFU/mL

C=Cc1c(C)c2cc3nc(c(CC(=O)NCCOP(=O)(O)O)c4[nH]c(cc5nc(cc1[nH]2)C(C)=C5CC)c(C)c4C(=O)O)[C@@H](CCC(=O)O)[C@@H]3C [Ce6-mono-EP OA^15]
inhibition at 100 µM ([1]; 100 uM, Dark): -5%
inhibition at 100 µM ([1]; 100 uM, Light): 71%

C=Cc1c(C)c2cc3nc(c(CC(=O)NCCNCCCC)c4[nH]c(cc5nc(cc1[nH]2)C(C)=C5CC)c(C)c4C(=O)O)[C@@H](CCC(=O)O)[C@@H]3C [Ce6-mono-BAE^15 amide]
inhibition at 10 µM [2, 7]: 49%
inhibition at 10 µM [2, 8]: 99%

C=Cc1c(C)c2cc3nc(c(CC(=O)NCCN(C)C)c4[nH]c(cc5nc(cc1[nH]2)C(C)=C5CC)c(C)c4C(=O)O)[C@@H](CCC(=O)NCCN(C)C)[C@@H]3C [Ce6-bis-DMAE^15,17 amide]
Relative Inactivation (log[CFUcontrol mL^−1] − log[CFUtreatment mL^−1]) ([3]; Dark control plate): 1.13 ± 0.42
Relative Inactivation (log[CFUcontrol mL^−1] − log[CFUtreatment mL^−1]) [3, 9]: 7.98 ± 0.65
Killing of bacteria [3]: killed all bacteria

C=Cc1c(C)c2cc3nc(c(CC(=O)[O-])c4[nH]c(cc5nc(cc1[nH]2)C(C)=C5CC)c(C)c4C(=O)[O-])[C@@H](CCC(=O)[O-])[C@@H]3C.[Na+].[Na+].[Na+] [Ce6Na3]
Inhibition [2, 7]: 26%
Inhibition [2, 8]: 74%
Inhibition ([2]; Light, 5 μM, agar plate): 39%
Inhibition ([2]; Light, 10 μM, agar plate): 74%
Inhibition ([2]; Light, 31 μM, agar plate): 99%
Inhibition ([2]; No Light, 5 μM, agar plate): 13%
Inhibition ([2]; No Light, 10 μM, agar plate): 26%
Inhibition ([2]; No Light, 31 μM, agar plate): 44%
Relative Inactivation (log[CFUcontrol mL^−1] − log[CFUtreatment mL^−1]) ([3]; Dark control plate): −0.03 ± 0.13
Relative Inactivation (log[CFUcontrol mL^−1] − log[CFUtreatment mL^−1]) [3, 9]: 0.39 ± 0.29
Inhibition ([1]; 10 uM, Dark): −4%
Inhibition ([1]; 10 uM, Light): 53%
Inhibition ([1]; 100 uM, Dark): 16%
Inhibition ([1]; 100 uM, Light): 66%
Turf Quality [4]: 6

C=Cc1c(C)c2cc3nc(c(CC(=O)NCCN(C)C)c4[nH]c(cc5nc(cc1[nH]2)C(C)=C5CC)c(C)c4C(=O)O)[C@@H](CCC(=O)O)[C@@H]3C [Ce6-mono-DMAE^15 amide]
Relative Inactivation (log[CFUcontrol mL^−1] − log[CFUtreatment mL^−1]) ([3]; Dark control plate): 0.21 ± 0.33
Relative Inactivation (log[CFUcontrol mL^−1] − log[CFUtreatment mL^−1]) [3, 9]: 7.98 ± 0.65
Killing of bacteria [3]: killed all bacteria
Disease inhibition, % [5]: 56%
Disease inhibition, % [6]: 94%
